Here are results for three compounds from US10921257B2, “Method and system of pesticide detection using SERS” (priority 2016, dated 2021).

In one data set the test system is grape. Nature of the data set: SERS depth mapping of pesticide and AuNPs penetration into grapes (Example 2). Conditions: 100 mg/L.
The subject of a further data set is harvested basil leaves. Nature of the data set: SERS depth mapping of pesticide and AuNPs penetration into harvested basil leaves (Example 3). Conditions: 10 mg/L.
In a further data set the test system is apple. The data set is described as follows: SERS depth mapping of pesticide and AuNPs penetration into apples (Example 2). Conditions: 100 mg/L.
Data set [1] deals with spinach leaves. Nature of the data set: SERS depth mapping of pesticide and AuNPs penetration into spinach leaves (Example 1). Conditions: 20 ppm.
Procedure: These leaves were carefully washed with ultrapure water and dried before experimentation. […] A volume of 50 μL of each solution was then mixed with 50 μL of a 250 ppm 50 nm AuNPs solution for 1 min. at room temperature to ensure complete pesticide complexation with AuNPs through Au-thiol bond. 5 μL of each of the pre-prepared pesticide solution were then pipetted onto spinach leaves situated on a glass slide and air-dried in a fume hood for 30 min. […] All controls were air-dried in a fume hood as above. For evaluation of feasibility of Raman detection of pesticides on spinach leaves, 5 μL of the pre-prepared pesticide solution and AuNPs solution without pesticide were also dropped onto a gold slide and dried for 30 min in a hood for comparisons. Raman spectra were collected individually for all treatments.
After 1 h, bright field light scattering images and SERS mapping images were collected from all samples.
In order to remove any interference caused by pesticide residues on the spinach leaf surface, different washing methods were investigated. […] Then each leaf was immersed into 20 mL of deionized water or 20 mL of a 10 mg/mL of NaHCO3 solution. For the water washing method, each leaf was submerged into water for either 10 or 60 min. For the NaHCO3 washing method, each leaf was submerged into the NaHCO3 solution for 30, 60, 90, or 120 s and then gently rinsed with 500 mL of deionized water for 30 s, respectively. All washed leaf samples were air-dried at room temperature for 30 min before being treated with AuNPs. […]
After 1 h for drying, SERS depth mapping images were obtained using the confocal Raman instrument. Similar samples without washing were likewise measured for comparison purposes.
To study accurate systemic pesticide penetration, different washing methods were also used to remove surface thiabendazole residues. […] Surface thiabendazole residues were then analyzed by pipetting 5 μL of a 250 ppm AuNP solution onto the same leaf area where thiabendazole had been placed prior to washing and determining SERS depth mapping images by Raman instrument as before. […]
Data set [2] has as its system spinach leaves. The data set is described as follows: SERS depth mapping of pesticide and AuNPs penetration into spinach leaves (Example 2). Conditions: 100 mg/L.
Procedure: (§1) Organic grapes and spinach leaves were carefully hand washed as described above for apples before experiment to remove surface contaminants. In order to study pesticide penetration in grapes, the same two washing methods were used as presented above for apples. Grapes treated with each pesticides solution (100 mg/L) were washed with either a 5% acetic acid or 1% NaHCO3 solution. Washing effects were evaluated using the SERS methods and the penetration behaviors of each pesticide were monitored as for apple above. Pesticides penetration experiments on spinach leaves were carried out as described above for apple and grape.
(§2) A DXR Raman microscope (Thermo Fisher Scientific, Madison, Wis., USA) with a 780 nm laser and a 20× long distance microscope objective was used in this study. Each sample was scanned from 400 to 2000 cm^−1 for a 2 s exposure time. For measuring pesticides on both gold slides and fresh produce surfaces, Raman mapping was carried out using a 50 μm slit aperture and 5 mW laser power to maximize the signals. Ten discrete locations were randomly chosen on each sample for analysis. For penetration studies, SERS depth mapping images were obtained using a 50 μm pinhole aperture and 1 mW laser power to control the confocal depths using a scanning depth of 300 μm. Each depth scanning vertical to produce surface was randomly selected in apple peel, grape peel or spinach leaf with an area of 100 μm×300 μm. The step size of the depth mapping was 20 μm and one image contained 75 scanning spots. Raman images were integrated based on the characteristic peaks in the pesticide spectra using the Atlμs Function in the OMINCS software (Thermo Fisher Scientific). Statistical analysis was conducted using SPSS Statistics 22 software (IBM Corporation, Armonk, N.Y., USA). The differences among results were calculated using an analysis of variance (ANOVA) and a post hoc Duncan test with a confidence level of 95%.
Another data set relates to live basil leaves. The data set is described as follows: SERS depth mapping of pesticide and AuNPs penetration into live basil leaves (Example 3).
Setting [3] is: 48 h exposure, surface residues washed off.

Procedure for apple: Organic apples were carefully hand washed with ultrapure water for 3 min and air-dried before experiment to remove surface contaminants. Then a 5 μL aliquot from a 100 mg/L solution of each pesticide was pipetted onto the apple surface. After air-drying the pesticides, apple peels with ˜2.0×2.0 cm^2 area were cut from each treated apple using a sharp knife. To determine pesticide penetration with penetrative AuNPs, any interference caused by pesticide residues on the apple surface were removed by washing. Two different washing methods were investigated using either an acetic acid- or NaHCO3-containing solution. Each peel was immersed into 20 mL of either a 5% acetic acid or a 1% NaHCO3 solution for different times and gently rinsed with 200 mL of deionized water for 10 s, respectively. All washed samples were air-dried at room temperature for 10 min before being treated with AuNPs. After drying AuNPs for 1 h, SERS detection was performed on that area to evaluate washing effects. Ten discrete locations were randomly chosen on each apple peel sample and scanned. Similar samples were prepared without either washing method and were scanned as above for comparisons.
Following drying, the surface residues from each applied pesticide were washed off using either the NaHCO3 or acetic acid solution and a 5 μL aliquot of the 250 mg/L AuNPs solution was added as described above. After 1 h of drying, SERS depth mapping images were obtained using the confocal Raman instrument.
A DXR Raman microscope (Thermo Fisher Scientific, Madison, Wis., USA) with a 780 nm laser and a 20× long distance microscope objective was used in this study. Each sample was scanned from 400 to 2000 cm^−1 for a 2 s exposure time. […] Ten discrete locations were randomly chosen on each sample for analysis. For penetration studies, SERS depth mapping images were obtained using a 50 μm pinhole aperture and 1 mW laser power to control the confocal depths using a scanning depth of 300 μm. […] The step size of the depth mapping was 20 μm and one image contained 75 scanning spots. Raman images were integrated based on the characteristic peaks in the pesticide spectra using the Atlμs Function in the OMINCS software (Thermo Fisher Scientific). […] The differences among results were calculated using an analysis of variance (ANOVA) and a post hoc Duncan test with a confidence level of 95%.
Procedure for grape: as §1, §2
Procedure for harvested basil leaves: (§3) A 5 μL aliquot of the mixture was pipetted onto harvested leaves or onto the live leaves on the plant. After air drying for 30 min, SERS depth mapping images were obtained using a confocal Raman instrument as detailed below.
For the study of the pesticides penetration on harvested basil leaves, 36 intact leaves (0.2 g per leaf) were first cut off from petiole on live plants using a sharp knife and carefully rinsed as described above for live leaves. During the experiment, the stems of each harvested leaf were immersed into water to keep the leaf fresh. To study pesticide penetration into harvested leaves, the same rinsing method and pesticides penetration protocols were carried out as described above for live leaves.
For penetration studies, SERS depth mapping images were obtained using a 50 μm pinhole aperture and 3 mW laser power to control the confocal depth using a scanning depth of 300 μm. Each depth area (100 μm×300 μm) was chosen from the treated spot on the leaf distant from a gland because the gland is the cavity, not a flat surface. The step size of the depth mapping was 20 μm and one image contained 75 scanning spots. […] The differences among results were calculated using an independent sample T-test or analysis of variance (ANOVA) and a post hoc Duncan test with a confidence level of 95%.
Procedure for live basil leaves: as §3
For the study of pesticide penetration into live basil leaves, 36 intact leaves (approximately 0.2 g per leaf) were selected from six live plants as the experimental target (6 leaves per plant) and carefully rinsed with 450 mL ultrapure water for 30 s and air-dried before the experiment to remove surface contaminants like dust. After rinsing, the clean leaves were used to study of pesticide penetration. […] Some of the pesticides might penetrate into leaves from the surface during the periods. After pesticide penetrated into leaves for different time periods, ultrapure water with flow rate of 15 mL/s was utilized to gently rinse the surface of leaves (Step 2). Different rinsing times were then investigated to complete removal of each pesticide residue on the surface. After rinsing of surface pesticide residues, all leaf samples were air-dried at room temperature for 30 min. […] The video camera in the Raman microscope was used to record the position on the leaves and help to find the same area for AuNPs deposition. After AuNPs treatment for drying 30 min, SERS detection was performed on that area using the confocal Raman instrument. Each treatment was performed twice.
For penetration studies, SERS depth mapping images were obtained using a 50 μm pinhole aperture and 3 mW laser power to control the confocal depth using a scanning depth of 300 μm. Each depth area (100 μm×300 μm) was chosen from the treated spot on the leaf distant from a gland because the gland is the cavity, not a flat surface. The step size of the depth mapping was 20 μm and one image contained 75 scanning spots. Raman images were integrated based on the characteristic peaks in the pesticide spectra using the Atlμs Function in the OMINCS software (Thermo Fisher Scientific). There was one spot on each leaf and one depth area was selected from each spot. For each pesticide depth mapping experiment, there were six duplicates with six leaves coming from three different plants (2 leaves from each plant).
Pesticide penetration was investigated using both intact and damaged leaves on live plants. Damaged leaves were prepared using a sharp knife to scratch the top surface of intact leaves. Each of the damaged leaves had 20 scrapes on each leaf and the distance between each scrape is 0.2 cm.

As for `c1ccc2[nH]c(-c3cscn3)nc2c1` [thiabendazole, 2-(4-thiazolyl)-1H-benzimidazole], the “Exposure time at which penetration was first apparent” value with grape is 30 min. Further, the Penetration depth entry in the data set on grape (24 h) was “about 36 μm”; in the data set with grape (setting [3]) it was “about 55 μm”; in the data set on harvested basil leaves (48 h after exposure, surface rinsed), “approximately 180 μm”; in the data set with apple (24 h), “about 140 μm”; with apple (setting [3]) it was “approximately 160 μm”; in the data set with spinach leaves [2] (30 min), 100 μm. For the same compound, the Penetration depth in the data set on spinach leaves [2] (24 h) was roughly 160 μm; in the data set on spinach leaves [2] (setting [3]), roughly 220 μm; in the data set on live basil leaves (10 mg/L, live leaves, 48 h after exposure, surface rinsed) it was roughly 225 μm; with live basil leaves (damaged (knife-scratched) leaves on live plants) it was 80 μm; in the data set with live basil leaves (intact leaves on live plants), 170 μm; in the data set on live basil leaves (large (old, 45 days) leaves, 24 h exposure), 165 μm. Moreover, the Penetration depth in the data set with live basil leaves (small (young, 15 days) leaves, 24 h exposure) stood at 95 μm. Further, the “Exposure time at which penetration was first seen” value with harvested basil leaves is recorded as 30 min; with live basil leaves (10 mg/L, live leaves), 30 min. For the same compound, the “Exposure time at which penetration was first observed” value in the data set with apple was found to be 30 min. In the data set with spinach leaves [1] (surface residues washed off with NaHCO3), the “Earliest time of detecting pesticide inside leaves” value was 6 h. For the same compound, the “Penetration depth in depth mapping images with increasing exposure time” value in the data set on spinach leaves [1] (washed) was “approximately 150 μm”. The “Penetration depth from scans parallel to leaf surface at different depths” value in the data set on spinach leaves [1] (washed, 2 days exposure) is “approximately 210 μm”. For the same compound, the “Exposure time at which pesticide was first detected” value in the data set with spinach leaves [2] worked out at 30 min.
In the case of `COP(=S)(OC)SCN1C(=O)c2ccccc2C1=O` [phosmet, O,O-dimethyl S-Phthalimido Methyl Phosphorodithioate], the “Exposure time at which penetration was first observed” value in the data set on grape was 48 h. Further, the Penetration depth result in the data set with grape (setting [3]) is reported as “about 20 μm”; with apple (setting [3]) it was roughly 55 μm; in the data set on spinach leaves [2] (setting [3]), 70 μm. Further, the “Exposure time at which pesticide was first detected” value in the data set with apple stood at 6 h; with spinach leaves [2], 1440 min.
On to `C/C(=N\C#N)N(C)Cc1ccc(Cl)nc1` [acetamiprid, (E)-N-[(6-chloro-3-pyridyl)methyl]-N′-cyano-N-methylethanimidamide], for which, in the data set with grape, the “Exposure time at which penetration was first apparent” value was found to be 30 min. The Penetration depth result was “about 75 μm” in the data set with grape (setting [3]), roughly 140 μm in the data set on apple (setting [3]) and 90 μm in the data set on spinach leaves [2] (setting [3]). Moreover, the “Exposure time at which penetration was first observed” value in the data set on apple is listed as 30 min.
